Reference: patent US12129223B2, “Lipids for use in lipid nanoparticle formulations” (Acuitas Therapeutics, Inc., priority 2021, dated 2024)

What was measured:
[1] = Determination of pKa of formulated lipids (TNS fluorescence assay in lipid nanoparticles); assay type: physicochemical; details: lipid nanoparticles (compound/DSPC/cholesterol/PEG-lipid), lipid formulated in LNP (lipid/DSPC/cholesterol/PEG-lipid), pH at half-maximal intensity
Protocol: As described elsewhere, the pKa of formulated lipids is correlated with the effectiveness of LNPs for delivery of nucleic acids (see Jayaraman et al, Angewandte Chemie, International Edition (2012), 51(34), 8529-8533; Semple et al, Nature Biotechnology 28, 172-176 (2010)). In some embodiments, the preferred range of pKa is ˜5 to ˜7. The pKa of each lipid is determined in lipid nanoparticles using an assay based on fluorescence of 2-(p-toluidino)-6-napthalene sulfonic acid (TNS). Lipid nanoparticles comprising compound of structure (I)/DSPC/cholesterol/PEG-lipid (50/10/38.5/1.5 or 47.5:10:40.7:1.8 mol %) in PBS at a concentration of 0.4 mM total lipid are prepared using the in-line process as described in Example 1. TNS is prepared as a 100 μM stock solution in distilled water. Vesicles are diluted to 24 μM lipid in 2 mL of buffered solutions containing 10 mM HEPES, 10 mM MES, 10 mM ammonium acetate, and 130 mM NaCl, where the pH ranged from 2.5 to 11. An aliquot of the TNS solution is added to give a final concentration of 1 μM and following vortex mixing fluorescence intensity is measured at room temperature in a SLM Aminco Series 2 Luminescence Spectrophotometer using excitation and emission wavelengths of 321 nm and 445 nm. A sigmoidal best fit analysis is applied to the fluorescence data and the pKa is measured as the pH giving rise to half-maximal fluorescence intensity.

[2] = test system: luciferase expression in the liver; assay: Luciferase mRNA in vivo evaluation using lipid nanoparticle compositions; set-up: species or system mice; details: LNP with FLuc mRNA, tail vein injection, ng luciferase/g liver 4 hours after administration; for Liver Luc @ 0.3 mg/kg: 0.3 mg mRNA/kg; for Liver Luc @ 1.0 mg/kg: 1.0 mg mRNA/kg
Protocol: (§1) A lipid of structure (I), DSPC, cholesterol and PEG-lipid are solubilized in ethanol at a molar ratio of 50:10:38.5:1.5 or 47.5:10:40.7:1.8. Lipid nanoparticles (LNP) are prepared at a total lipid to mRNA weight ratio of approximately 10:1 to 40:1. Briefly, the mRNA is diluted to 0.2 mg/mL in 10 to 50 mM citrate buffer, pH 4 or 10 to 25 mM acetate buffer, pH 4. Syringe pumps are used to mix the ethanolic lipid solution with the mRNA aqueous solution at a ratio of about 1:5 to 1:3 (vol/vol) with total flow rates above 15 mL/min. The ethanol is then removed and the external buffer replaced with PBS by dialysis. Finally, the lipid nanoparticles are filtered through a 0.2 µm pore sterile filter.
Studies are performed in 6-8 week old female C57BL/6 mice (Charles River) 8-10 week old CD-1 (Harlan) mice (Charles River) according to guidelines established by an institutional animal care committee (ACC) and the Canadian Council on Animal Care (CCAC). Varying doses of mRNA-lipid nanoparticle are systemically administered by tail vein injection and animals euthanized at a specific time point (e.g., 4 hours) post-administration. Liver and spleen are collected in pre-weighed tubes, weights determined, immediately snap frozen in liquid nitrogen and stored at −80° C. until processing for analysis.
For liver, approximately 50 mg is dissected for analyses in a 2 mL FastPrep tubes (MP Biomedicals, Solon OH). ¼″ ceramic sphere (MP Biomedicals) is added to each tube and 500 μL of Glo Lysis Buffer—GLB (Promega, Madison WI) equilibrated to room temperature is added to liver tissue. Liver tissues are homogenized with the FastPrep24 instrument (MP Biomedicals) at 2×6.0 m/s for 15 seconds. Homogenate is incubated at room temperature for 5 minutes prior to a 1:4 dilution in GLB and assessed using SteadyGlo Luciferase assay system (Promega). Specifically, 50 μL of diluted tissue homogenate is reacted with 50 μL of SteadyGlo substrate, shaken for 10 seconds followed by 5 minute incubation and then quantitated using a CentroXS^3 LB 960 luminometer (Berthold Technologies, Germany). The amount of protein assayed is determined by using the BCA protein assay kit (Pierce, Rockford, IL). Relative luminescence units (RLU) are then normalized to total μg protein assayed. To convert RLU to ng luciferase a standard curve is generated with QuantiLum Recombinant Luciferase (Promega).
The FLuc mRNA (L-6107) from Trilink Biotechnologies will express a luciferase protein, originally isolated from the firefly, Photinus pyralis. FLuc is commonly used in mammalian cell culture to measure both gene expression and cell viability. It emits bioluminescence in the presence of the substrate, luciferin. This capped and polyadenylated mRNA is fully substituted with 5-methylcytidine and pseudouridine.
(§2) Representative compounds of the disclosure shown in Table 2 were formulated using the following molar ratio: 50% cationic lipid/10% distearoylphosphatidylcholine (DSPC)/38.5% Cholesterol/1.5% PEG lipid 2-[2-(ω-methoxy(polyethyleneglycol2000)ethoxy]-N,N-ditetradecyl acetamide) or 47.5% cationic lipid/10% DSPC/40.7% Cholesterol/1.8% PEG lipid. Relative activity was determined by measuring luciferase expression in the liver 4 hours following administration via tail vein injection as described in Example 1 or by measuring the amount of human IgG in mouse serum as described in example 2. The activity was compared at a dose of 1.0 or 0.5 or 0.3 mg mRNA/kg and expressed as ng luciferase/g liver measured 4 hours after administration, as described in Example 1 or as μg IgG/mL serum measured 24 hours after administration, as described in Example 2. Compound numbers in Table 2 refer to the compound numbers of Table 1.

[3] = test system: human IgG in mouse serum; assay: Immunoglobulin G (IgG) mRNA in vivo evaluation using lipid nanoparticle compositions; set-up: species or system mice; details: LNP with IgG mRNA, tail vein injection, serum 24 hours after administration; for Serum IgG @ 0.3 mg/kg: 0.3 mg mRNA/kg; for Serum IgG @ 1.0 mg/kg: 1.0 mg mRNA/kg
Protocol: as §1
Studies are performed in 6-8 week old CD-1/ICR mice (Envigo) according to guidelines established by an institutional animal care committee (ACC) and the Canadian Council on Animal Care (CCAC). Varying doses of mRNA-lipid nanoparticle are systemically administered by tail vein injection and animals euthanized at a specific time point (e.g., 24 hours) post-administration. The whole blood is collected, and the serum subsequentially separated by centrifuging the tubes of the whole blood at 2000×g for 10 minutes at 4° C. and stored at −80° C. until use for analysis.
For immunoglobulin G (IgG) ELISA (Life Diagnostics Human IgG ELISA kit), the serum samples are diluted at 100 to 15000 folds with 1×diluent solution. 100 μL of diluted serum is dispensed into anti-human IgG coated 96-well plate in duplicate alongside human IgG standards and incubated in a plate shaker at 150 rpm at 25° C. for 45 minutes. The wells are washed 5 times with 1× wash solution using a plate washer (400 μL/well). 100 μL of HRP conjugate is added into each well and incubated in a plate shaker at the same condition above. The wells are washed 5 times again with 1× wash solution using a plate washer (400 μL/well). 100 μL of TMB reagent is added into each well and incubated in a plate shaker at the same condition above. The reaction is stopped by adding 100 μL of Stop solution to each well. The absorbance is read at 450 nm (A450) with a microplate reader. The amount of human IgG in mouse serum is determined by plotting A450 values for the assay standard against human IgG concentration.
as §2

pKa [1] | SMILES | Liver Luc @ 0.3 mg/kg [2] [ng/g] | Liver Luc @ 1.0 mg/kg [2] [ng/g] | Serum IgG @ 0.3 mg/kg [3] [µg/mL] | Serum IgG @ 1.0 mg/kg [3] [µg/mL]
6.54 | CCCCCCCCCCN(CCCCCCCCCC)C(=O)CCCCCCCN(CCCCCO)CCCCCCCC(=O)N(CCCCCCCCCC)CCCCCCCCCC [Compound I-21, 8,8′-((5-hydroxypentyl)azanediyl)bis(N,N-didecyloctanamide)] | 29492 ± 4887 | 43216 ± 25636 | 48.78 ± 6.88 | 220.38 ± 62.57
6.47 | CCCCCCCCCCN(CCCCCCCCCC)C(=O)CCCCCCCN(CCO)CCCCCCCC(=O)N(CCCCCCCCCC)CCCCCCCCCC [Compound I-22, 8,8′-((2-hydroxyethyl)azanediyl)bis(N,N-didecyloctanamide)] | 12829 ± 3326 | 38933 ± 23162 | 31.00 ± 9.33 | 99.12 ± 18.03
6.48 | CCCCCCCCCCN(CCCCCCCCCC)C(=O)CCCCCCCN(CCCCO)CCCCCCCC(=O)N(CCCCCCCCCC)CCCCCCCCCC [Compound I-23, 8,8′-((4-hydroxybutyl)azanediyl)bis(N,N-didecyloctanamide)] | 15876 ± 7588 | 34202 ± 19178 | 43.34 ± 7.70 | 103.91 ± 31.29
6.49 | CCCCCCCCCCN(CCCCCCCCN(CCCCCO)CCCCCCCCN(CCCCCCCCCC)C(=O)CCCCCCCCC)C(=O)CCCCCCCCC [Compound I-66, N,N′-(((5-hydroxypentyl)azanediyl)bis(octane-8,1-diyl))bis(N-decyldecanamide)] |  |  | 32.06 ± 5.07 | 253.37 ± 52.48
6.18 | CCCCCCCCCCCCN(CCCCCCCCN(C)CCCCCCCCN(CCCCCCCCCCCC)C(=O)CCCCCCCCCCC)C(=O)CCCCCCCCCCC [Compound I-67, N,N′-((methylazanediyl)bis(octane-8,1-diyl))bis(N-dodecyldodecanamide)] |  |  | 7.19 ± 1.41 | 62.94 ± 13.88
6.41 | CCCCCCCCCCCCN(CCCCCCCCN(CCCCCO)CCCCCCCCN(CCCCCCCCCCCC)C(=O)CCCCCCCCCCC)C(=O)CCCCCCCCCCC [Compound I-68, N,N′-(((5-hydroxypentyl)azanediyl)bis(octane-8,1-diyl))bis(N-dodecyldodecanamide)] |  |  | 12.30 ± 2.41 | 121.93 ± 34.85
6.32 | CCCCCCCCCCN(CCCCCCCCN(C)CCCCCCCC(=O)N(CCCCCCCCCC)CCCCCCCCCC)C(=O)CCCCCCCCC [Compound I-73, N-decyl-N-(8-((8-(didecylamino)-8 oxooctyl)(methyl)amino)octyl)decanamide] |  |  | 27.72 ± 6.23 | 213.39 ± 18.85
6.53 | CCCCCCCCCCN(CCCCCCCCN(CCCCCO)CCCCCCCC(=O)N(CCCCCCCCCC)CCCCCCCCCC)C(=O)CCCCCCCCC [Compound I-74, N-decyl-N-(8-((8-(didecylamino)-8-oxooctyl)(5-hydroxypentyl)amino)octyl)decanamide] |  |  | 50.16 ± 6.58 | 292.44 ± 40.55
6.48 | CCCCCCCCCCN(CCCCCCCCCC)C(=O)CCCCCCN(C)CCCCCCC(=O)N(CCCCCCCCCC)CCCCCCCCCC [Compound I-75, 7,7′-(methylazanediyl)bis(N,N-didecylheptanamide)] |  |  | 84.87 ± 12.19 | 343.06 ± 42.39
6.71 | CCCCCCCCCCN(CCCCCCCCCC)C(=O)CCCCCCCN(CCCCCCCC(=O)N(CCCCCCCCCC)CCCCCCCCCC)CCN(C)C [Compound I-77] |  |  | 17.45 ± 2.05 | 
6.47 | CCCCCCCCCCN(CCCCCCCCCC)C(=O)C(F)CCCCCCN(CCCCCO)CCCCCCC(F)C(=O)N(CCCCCCCCCC)CCCCCCCCCC (stereo not shown) [Compound I-82, 8,8′-((5-hydroxypentyl)azanediyl)bis(N,N-didecyl-2-fluorooctanamide)] |  |  | 24.36 ± 4.39 | 239.26 ± 39.80
6.12 | CCCCCCCCCCN(CCCCCCCCCC)C(=O)C(F)CCCCCCN(C)CCCCCCC(F)C(=O)N(CCCCCCCCCC)CCCCCCCCCC (stereo not shown) [Compound I-83, 8,8′-(methylazanediyl)bis(N,N-didecyl-2-fluorooctanamide)] |  |  | 12.94 ± 2.03 | 142.26 ± 26.31
6.81 | CCCCCCCCCCN(CCCCCCCCCC)C(=O)CCCN(CCCCCO)CCCC(=O)N(CCCCCCCCCC)CCCCCCCCCC [Compound I-85, 4,4′-((5-hydroxypentyl)azanediyl)bis(N,N-didecylbutanamide)] |  |  | 10.74 ± 2.79 | 
